Results on four compounds are retold here after patent publication US20110064679A1 (priority 2008, published 2011).

Like-named read-outs stand apart in the source and are kept apart here.

In one data set the test system is microbial growth. Briefly: Preservative function: microbial growth in agar and cornmeal paste. To be noted: for microbial growth compared to control preparations: 8 mM in Nematode Growth Agar and cornmeal paste, monitored with a microscope. From the text: These compositions where monitored over time with a microscope, and compared to control preparations.
A short description of a further data set: in vivo. To be noted: male, C57BL/6, mouse, in vivo, po. The procedure: (§1) This product was added to the normal diet and consumed over a period of eight hours. Food was selected as the vehicle of choice due to solubility concerns of the Oxaloacetate and because of the anticipated use of the product.
(§2) C57BL/6 mice were used in this test. These mice were used because they are often used for longevity studies. Additionally, there is substantial information on Chronic exposure of the test compound with this breed of mice.
(§3) Male mice were used in the Acute study because male mice were used in the Chronic exposure study. Each animal was housed separately and was 2 months of age.
(§4) 5,000 mg/kg doses of the test compound were added to food, as it is anticipated that this product will be taken with a meal. Specifically,
(§5) Each animal was caged separately. Prior to feeding, the bedding in the animal cage was changed. Food was prepared by dissolving 100 mg of the test compound with each ml of distilled water, then rolling the appropriate amount of food pellets in the amount of water until the waster was absorbed to obtain the proper dosage per animal. The test compound laced food was placed in the cage with the animal at the end of the day. […] Water was provided freely.
(§6) After dosing the animals with the test compound, the animals were returned to a standard Ad Librium diet of food pellets and water.

Data set [1] concerns C57BL/6 mice. Briefly: in vivo. As for the experimental part: as §1, §2, §3, §4, §5, §6
Data set [2] relates to C57BL/6 mice. To be noted: for Average increase in lifespan compared to the control group: daily dosage of 380 mg/kg, male C57BL/6 mice started at 9 months. The procedure:
as §1
C57BL/6 mice were used in this test. These mice were used because they are often used for longevity studies.
Male mice were used in the Chronic study because of their linear increase in weight with time. Females are less linear in their increase.
Each animal was housed separately and the test was started with older animals (9 months of age) as human use is primarily anticipated to be in the older populations. The test was continued until all animals died.
25 Male C57BL/6 mice with the same day of birth (plus or minus 1 week) were selected for the test. The mice were evaluated for fasting glucose levels and weight, and broken into three similar groups based on equalization of weight and fasting glucose levels.
Each animal was caged separately in a low stimulus environment and fed one of three diets. The first group was the Control Group, and it was fed an ad Librium balanced diet of mouse food pellets. The second group was calorie restricted 40% from the control group, as established by baseline feeding. […] At the end of 21 weeks, 3 mice from each group were sacrificed and their livers exhumed for genomic testing.
The remaining groups of mice were allowed to live the rest of their lives on the individualized diets for humane reasons. The study has been ongoing for 18 months.
The test compound laced food was placed in the cage with the animal at the end of each day. Water was provided freely.

Data set [3] deals with genomic expression in the livers. Briefly: Genomic expression in the livers, Affymatrix Mouse Genome 430 2.0 Array. The class given is in vivo. To be noted: for Percentage of genes moving in same direction as Calorie Restricted Mice (correlation): 1.7 fold expression cut-off. From the text: In the calorie restricted mice, 1,763 genes changed in expression as compared to the control group. […] Comparison of common genes changed in expression between the Calorie Restricted group and the Oxaloacetic group indicated 363 genes in common.
If a 1.7 fold expression cut-off is used to eliminate false positives (commonly used in the literature), the correlation between the two groups becomes 100% for the genes in common, which drops down to 36 highly expressed or repressed genes. A table of the genes affected is seen in Table 1.

A further data set has as its system Caenorhabditis elegans. Briefly: Lifespan toxicity test of preservative / acidizing agent. It is filed as in vivo. The procedure:
(§7) The toxicity of the preservative was tested by examining the lifespan of Caenorhabditis elegans, Drosophila melanogaster, and Mus musculus.
(§8) This dropped the pH of the agar from 6.0 to 5.3. The toxicity of the acidizing agent was tested by examining the lifespan of Caenorhabditis elegans.

In a further data set the test system is Drosophila melanogaster. The data set can be described thus: Lifespan toxicity test of preservative. The class given is in vivo. As for the experimental part: as §7
Another data set deals with Mus musculus. To be noted: in vivo. The procedure: as §7
A short description of data set [4]: Acidizing function: pH of agar. The class given is physicochemical. The procedure:
as §8

Another data set deals with Mouse. The conditions noted are these: cited from earlier work.

With `O=C([O-])CC(=O)C(=O)O.[Na+]` [sodium oxaloacetate salt, sodium oxaloacetate], the “microbial growth compared to control preparations” value with microbial growth is given as “control preparations had more microbial growth”.

In general, LD50 refers to the dose at which mortality reaches 50%. In “in vivo”, `O=C(O)CC(=O)C(=O)O` [Oxaloacetic Acid] gave an LD50 at 8 h of over 5000 mg/kg. Besides, the “Survival at limitation dose” value in the data set on C57BL/6 mice [1] (5,000 mg/kg with food, five male C57BL/6 mice) was “All animals survived”. Besides, the LD50 with C57BL/6 mice [1] (male, C57BL/6, mouse, in vivo, po, 8 h) is recorded as > 5,000 mg/kg. Also, in the data set with C57BL/6 mice [2] (0.4% in food, 380 mg/kg daily, started at age of 9 months), the “Increase of residual lifespan over the control group” value amounted to 40%. Further, the “Average increase in lifespan compared to the control group” value is over 20% in the data set on C57BL/6 mice [2] (0.4% in food) and 25% in the data set with C57BL/6 mice [2] (0.4% in food, 380 mg/kg). The “Chronic toxicity compared to the control group” value in the data set on C57BL/6 mice [2] (mouse, in vivo, 380 mg/kg) is on record as “negative toxicity”. In [3] (1.7 Fold Cut Off), the “Genes Moving in Opposite Direction as Calorie Restricted Mice” value was 0. Further, in data set [3] (1.7 Fold Cut Off), the “Genes Moving in Same Direction as Calorie Restricted Mice” value came to 36. In addition, the “Percentage of genes moving in same direction as Calorie Restricted Mice (correlation)” value was 100% in [3] and 100.0% in data set [3] (listed as Oxaloacetate). In addition, the “Directional correlation of genomic expression with the calorie restricted group” value in data set [3] (363 genes in common, no cut-off) is reported as 98.1%. In addition, the “OX to C Change” value in data set [3] (gene 9130019P20Rik, Affx No. 39136, mouse liver vs control) was found to be 1. The “Genes changed in expression in common with the Calorie Restricted group” value in data set [3] (liver, after 21 weeks) worked out at 363. Further, the “Number of genes changed in expression as compared with the control group” value in [3] (liver, after 21 weeks on increasing diet) was 765. Besides, in the data set on microbial growth, the “microbial growth compared to control preparations” value was “control preparation had more microbial growth”. For the same compound, in the data set on microbial growth (even when the salt is used), the “smallest concentration producing a reduction in microbial activity” value came to 8 mM. The “lifespan (toxicity of the preservative)” value in the data set with Caenorhabditis elegans, in the data set with Drosophila melanogaster and in the data set with Mus musculus was “no decrease in lifespan” throughout. Also, the “lifespan (toxicity of the acidizing agent)” value in the data set with Caenorhabditis elegans (8 mM in agar) is reported as “no decrease in lifespan”. For the same compound, in data set [4], the “smallest concentration producing a decrease in pH” value is given as 1 mM. Moreover, the “pH of the agar after addition” value in data set [4] (8 mM in Nematode Growth Agar, dropped from 6.0) amounted to 5.3.

With `CC(O)C(=O)O` (centres unmarked) [Lactic Acid], the LD50 in the data set on Mouse (Mouse data, injected, subcutaneous injection) was 4,500 mg/kg.

As to `O=C(O)CC(O)C(=O)O` (centres unmarked) [Malic Acid], the LD50 in the data set with Mouse (mouse, in vivo, po) is given as 1,600 mg/kg.
